Results reported in patent US12072333B2, “Method and apparatus for selective removal of cells from a cell suspension by mechanical lysis” (UNIVERSITY OF IOWA RESEARCH FOUNDATION, priority 2016, dated 2024).

System: prostate cancer cells
Assay: Cell killing by ionomycin measured by uptake of trypan blue dye
Assay type: cell-based
Conditions: prostate cancer cells treated with ionomycin; after 30 minute; FIG. 1B

In the case of `C[C@H](CCC(=O)O)C[C@H](C)C[C@H](C)C(=O)/C=C(\O)[C@H](C)C[C@H](C)C/C=C/[C@@H](C)[C@@H](O)[C@@H](C)[C@@H](O)C[C@@H]1CC[C@@](C)([C@H]2CC[C@@](C)([C@@H](C)O)O2)O1` [ionomycin], the “cell death as measured by uptake of trypan blue dye” value is reported as “rapidly kills these cells”.
